{"source": "PubChem BioAssay AID272", "about": "(DTP/NCI, 2004)", "tested_on": "Lewis lung carcinoma i.m., BDF1 mice, T/C %", "assay": "NCI In Vivo Anticancer Drug Screen. Data for tumor model Lewis Lung Carcinoma (intramuscular) in B6D2F1 (BDF1) mice", "method_in_brief": "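Value is the ratio of a treated-group measurement (T) to the matching vehicle-control measurement (C), using either survival or tumour size in mice bearing transplanted tumours.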", "key": {"[1]": {"settings": "endpoint: mean tumor weight (est.), dose: 5.0 mg/kg/injection, schedule: Q01DX011 (ip), vehicle: saline, higher = larger tumour"}, "[2]": {"settings": "endpoint: mean tumor weight (est.), dose: 10.0 mg/kg/injection, schedule: Q01DX011 (ip), vehicle: saline, higher = larger tumour"}, "[3]": {"settings": "endpoint: median survival time, dose: 5.0 mg/kg/injection, schedule: Q01DX011 (ip), vehicle: saline, higher = longer survival"}, "[4]": {"settings": "endpoint: median survival time, dose: 10.0 mg/kg/injection, schedule: Q01DX011 (ip), vehicle: saline, higher = longer survival"}}, "note": "Where “and” joins values, the source holds several entries; their conditions need not be identical. Identical values can stand only once. Records with an inconclusive call do not appear."}
{"smiles": "Cc1[nH]c(=O)[nH]c(=O)c1N(CCF)CCCl", "values": [{"measurement": "T/C", "setting": "endpoint: mean tumor weight (est.), dose: 5.0 mg/kg/injection, schedule: Q01DX011 (ip), vehicle: saline with Tween-80, higher = larger tumour", "result": "69 % of control"}, {"measurement": "T/C", "setting": "[1]", "result": "81 % of control"}, {"measurement": "T/C", "setting": "endpoint: mean tumor weight (est.), dose: 10.0 mg/kg/injection, schedule: Q01DX011 (ip), vehicle: saline with Tween-80, higher = larger tumour", "result": "74 % of control"}, {"measurement": "T/C", "setting": "[2]", "result": "80 % of control"}, {"measurement": "T/C", "setting": "endpoint: mean tumor weight (est.), dose: 20.0 mg/kg/injection, schedule: Q01DX011 (ip), vehicle: saline with Tween-80, higher = larger tumour", "result": "54 % of control"}, {"measurement": "T/C", "setting": "endpoint: mean tumor weight (est.), dose: 20.0 mg/kg/injection, schedule: Q01DX011 (ip), vehicle: saline, higher = larger tumour", "result": "28 % of control"}, {"measurement": "T/C", "setting": "endpoint: mean tumor weight (est.), dose: 40.0 mg/kg/injection, schedule: Q01DX011 (ip), vehicle: saline with Tween-80, higher = larger tumour", "result": "24 % of control"}, {"measurement": "T/C", "setting": "endpoint: median survival time, dose: 5.0 mg/kg/injection, schedule: Q01DX011 (ip), vehicle: saline with Tween-80, higher = longer survival", "result": "101 % of control"}, {"measurement": "T/C", "setting": "[3]", "result": "109 % of control"}, {"measurement": "T/C", "setting": "endpoint: median survival time, dose: 10.0 mg/kg/injection, schedule: Q01DX011 (ip), vehicle: saline with Tween-80, higher = longer survival", "result": "105 % of control"}, {"measurement": "T/C", "setting": "[4]", "result": "119 % of control"}, {"measurement": "T/C", "setting": "endpoint: median survival time, dose: 20.0 mg/kg/injection, schedule: Q01DX011 (ip), vehicle: saline with Tween-80, higher = longer survival", "result": "100 % of control"}]}
{"smiles": "COc1ccc2nc3cc(Cl)ccc3c(NCCO)c2c1", "values": [{"measurement": "T/C", "setting": "endpoint: mean tumor weight (est.), dose: 34.37 mg/kg/injection, schedule: Q01DX011 (ip), vehicle: saline with Tween-80, higher = larger tumour", "result": "19 % of control"}, {"measurement": "T/C", "setting": "endpoint: mean tumor weight (est.), dose: 68.75 mg/kg/injection, schedule: Q01DX011 (ip), vehicle: saline with Tween-80, higher = larger tumour", "result": "55 % of control"}, {"measurement": "T/C", "setting": "endpoint: median survival time, dose: 34.36 mg/kg/injection, schedule: Q01DX011 (ip), vehicle: saline with Tween-80, higher = longer survival", "result": "91 % of control"}, {"measurement": "T/C", "setting": "endpoint: median survival time, dose: 68.75 mg/kg/injection, schedule: Q01DX011 (ip), vehicle: saline with Tween-80, higher = longer survival", "result": "96 % of control"}]}
{"smiles": "CSc1ncnc2c1ncn2C1OC(CO)C(O)C1O", "note": "(configuration not stated)", "values": [{"measurement": "T/C", "setting": "endpoint: mean tumor weight, dose: 3.75 mg/kg/injection, schedule: Q01DX011 (ip), vehicle: saline, higher = larger tumour", "result": "86 % of control"}, {"measurement": "T/C", "setting": "endpoint: mean tumor weight, dose: 7.5 mg/kg/injection, schedule: Q01DX011 (ip), vehicle: saline, higher = larger tumour", "result": "63 % of control"}, {"measurement": "T/C", "setting": "endpoint: median survival time, dose: 3.75 mg/kg/injection, schedule: Q01DX011 (ip), vehicle: saline, higher = longer survival", "result": "100 % of control"}, {"measurement": "T/C", "setting": "endpoint: median survival time, dose: 7.5 mg/kg/injection, schedule: Q01DX011 (ip), vehicle: saline, higher = longer survival", "result": "90 % of control"}]}
{"smiles": "O=C1CN(CCN2CC(=O)NC(=O)C2)CC(=O)N1", "values": [{"measurement": "T/C", "setting": "endpoint: mean tumor weight, dose: 25.0 mg/kg/injection, schedule: Q01DX011 (ip), vehicle: steriod suspending solution, higher = larger tumour", "result": "68 % of control and 80 % of control"}, {"measurement": "T/C", "setting": "endpoint: median survival time, dose: 12.5 mg/kg/injection, schedule: Q01DX011 (ip), vehicle: steriod suspending solution, higher = longer survival", "result": "111 % of control and 117 % of control"}, {"measurement": "T/C", "setting": "endpoint: median survival time, dose: 25.0 mg/kg/injection, schedule: Q01DX011 (ip), vehicle: steriod suspending solution, higher = longer survival", "result": "110 % of control and 114 % of control"}]}
{"smiles": "O=C1C=C(N2CC2)c2ccccc2C1=O", "values": [{"measurement": "T/C", "setting": "[1]", "result": "74 % of control"}, {"measurement": "T/C", "setting": "[2]", "result": "58 % of control"}, {"measurement": "T/C", "setting": "[3]", "result": "100 % of control"}, {"measurement": "T/C", "setting": "[4]", "result": "100 % of control"}]}
{"smiles": "COc1c2c([n+](C)c3c(OC)cccc13)OC(C(C)C)C2", "note": "(configuration not stated)", "values": [{"measurement": "T/C", "setting": "endpoint: mean tumor weight (est.), dose: 0.25 mg/kg/injection, schedule: Q01DX011 (ip), vehicle: saline, higher = larger tumour", "result": "85 % of control"}, {"measurement": "T/C", "setting": "endpoint: mean tumor weight (est.), dose: 0.5 mg/kg/injection, schedule: Q01DX011 (ip), vehicle: saline, higher = larger tumour", "result": "82 % of control"}, {"measurement": "T/C", "setting": "endpoint: median survival time, dose: 0.25 mg/kg/injection, schedule: Q01DX011 (ip), vehicle: saline, higher = longer survival", "result": "90 % of control"}, {"measurement": "T/C", "setting": "endpoint: median survival time, dose: 0.5 mg/kg/injection, schedule: Q01DX011 (ip), vehicle: saline, higher = longer survival", "result": "101 % of control"}]}
{"smiles": "CC1OC(=O)C(C2OC2C)=CC1O", "note": "(configuration not stated)", "values": [{"measurement": "T/C", "setting": "endpoint: mean tumor weight, dose: 6.25 mg/kg/injection, schedule: Q01DX011 (ip), vehicle: saline, higher = larger tumour", "result": "93 % of control"}, {"measurement": "T/C", "setting": "endpoint: mean tumor weight, dose: 12.5 mg/kg/injection, schedule: Q01DX011 (ip), vehicle: saline, higher = larger tumour", "result": "99 % of control"}, {"measurement": "T/C", "setting": "endpoint: mean tumor weight, dose: 25.0 mg/kg/injection, schedule: Q01DX011 (ip), vehicle: saline, higher = larger tumour", "result": "78 % of control"}, {"measurement": "T/C", "setting": "endpoint: median survival time, dose: 6.25 mg/kg/injection, schedule: Q01DX011 (ip), vehicle: saline, higher = longer survival", "result": "102 % of control"}, {"measurement": "T/C", "setting": "endpoint: median survival time, dose: 12.5 mg/kg/injection, schedule: Q01DX011 (ip), vehicle: saline, higher = longer survival", "result": "109 % of control"}, {"measurement": "T/C", "setting": "endpoint: median survival time, dose: 25.0 mg/kg/injection, schedule: Q01DX011 (ip), vehicle: saline, higher = longer survival", "result": "107 % of control"}]}
{"smiles": "O=[N+]([O-])c1cc([N+](=O)[O-])c(Nn2c3ccccc3c3ccccc32)c([N+](=O)[O-])c1", "values": [{"measurement": "T/C", "setting": "endpoint: median survival time, dose: 12.5 mg/kg/injection, schedule: Q01DX011 (ip), vehicle: saline with Tween-80, higher = longer survival", "result": "97 % of control"}, {"measurement": "T/C", "setting": "endpoint: median survival time, dose: 25.0 mg/kg/injection, schedule: Q01DX011 (ip), vehicle: saline with Tween-80, higher = longer survival", "result": "102 % of control"}, {"measurement": "T/C", "setting": "endpoint: median survival time, dose: 50.0 mg/kg/injection, schedule: Q01DX011 (ip), vehicle: saline with Tween-80, higher = longer survival", "result": "108 % of control"}]}
{"smiles": "COC(=O)Nc1nc2ccc(C(=O)c3cccs3)cc2[nH]1", "values": [{"measurement": "T/C", "setting": "endpoint: median survival time, dose: 35.0 mg/kg/injection, schedule: Q03DX008 (ip), vehicle: other, higher = longer survival", "result": "101 % of control"}, {"measurement": "T/C", "setting": "endpoint: median survival time, dose: 70.0 mg/kg/injection, schedule: Q03DX008 (ip), vehicle: other, higher = longer survival", "result": "86 % of control"}]}
